Test results published in US11629201B2, “PSMA-binding agents and uses thereof” (ITM Isotope Technologies Munich SE, priority 2017, dated 2023).
One block for each molecule: values may come before it.

Tests used:
[1] = n-Octanol/PBS distribution coefficient (log D); format: physicochemical; settings: n-octanol/PBS; radiolabeled ligand, 50 MBq/nmol, PBS pH 7.4
Procedure: The radioligand (0.5 MBq; 10 pmol, 25 μL) was then added to a reagent tube containing 1475 μL of PBS pH 7.4 and 1500 μL of n-octanol. The vials were vortexed vigorously followed by a centrifugation step for phase separation.
Determination of n-Octanol/PBS Distribution Coefficients (Log D Values). The distribution coefficients (log D values) of the ^64Cu-labeled radioligands (50 MBq/nmol) were determined by a shake-flask method using liquid-liquid extraction followed by phase separation as previously reported. Three experiments were performed with five replicates for each radioligand. Statistical significance of the data (p<0.05) was evaluated using an unpaired t-test (GraphPad Prism software, version 7).
Determination of n-Octanol/PBS Distribution Coefficients (Log D Values). […] A sample of the radioligands was mixed with phosphate-buffered saline (PBS) and n-octanol followed by vigorous vortexing. […] Three experiments were performed with five replicates for each compound.

[2] = tested on: PSMA-positive PC-3 PIP cells; assay: Cell uptake and internalization in PSMA-positive PC-3 PIP cells; format: cell-based; settings: 2 h and 4 h time-point, PC-3 PIP cells
[3] = tested on: PC-3 PIP/flu tumor-bearing mice; assay: Biodistribution studies in PC-3 PIP/flu tumor-bearing mice; settings: for Tumor-to-blood / Tumor-to-kidney / Tumor-to-liver: PC-3 PIP tumor
PC-3 PIP tumor = assay: Therapy study in PC-3 PIP tumor-bearing mice; format: in vivo
Excerpt: Mice of Groups B and D received 2 MBq of the radioligand (1 nmol/mouse), whereas mice of Groups C and E received 5 MBq of the radioligand (1 nmol/mouse). The mice were monitored by measuring body weights and the tumor size every other day over 12 weeks. Mice were euthanized when pre-defined endpoint criteria were reached, or when the study was terminated at Day 84. The relative body weight (RBW) was defined as [BWx/BW0], where BWx is the body weight in gram at a given day x and BW0 the body weight in gram at day 0. The tumor dimension was determined by measuring the longest tumor axis (L) and its perpendicular axis (W) with a digital caliper. The tumor volume (V) was calculated according to the equation [V=0.5*(L*W2)]. The relative tumor volume (RTV) was defined as [TVx/TV0], where TVx is the tumor volume in mm3 at a given day x and TV0 the tumor volume in mm3 at Day 0.
The efficacy of the radionuclide therapy was expressed as the tumor growth delay (TGDx), which was calculated as the time required for the tumor volume to increase x-fold over the initial volume at the Day 0. The tumor growth delay index [TGDIx=TGDx(T)/TGDx(C)] was calculated as the TGDx ratio of treated mice (T) over control mice (C) for a 2-fold (x=2, TGD2) and 5-fold (x=5, TGD5) increase of the initial tumor volume. As a measure to identify undesired side effects, body weights were compared at the day when the first control mouse had to be euthanized. After euthanasia, kidneys, liver and the brain were collected and weighed. The organ ratios (kidney-to-brain and liver-to-brain) were calculated using the organ masses obtained at the day of euthanasia.
The data was analyzed for significance as indicated in the result part using a one-way ANOVA with Tukey's multiple comparison post-test using GraphPad Prism software (version 7). A value of p<0.05 was considered statistically significant. Survival analysis was performed with Kaplan-Meier curves and a log-rank tests (Mantel Cox).

[4] = 2 MBq/mouse (Groups B, D), control = 1

SMILES: Cc1ccc(CCCC(=O)NCCCCC(NC(=O)CN2CCN(CC(=O)O)CCN(CC(=O)O)CCN(CC(=O)O)CC2)C(=O)NCC2CCC(C(=O)NC(Cc3ccc4ccccc4c3)C(=O)NCCCCC(NC(=O)NC(CCC(=O)O)C(=O)O)C(=O)O)CC2)cc1 (stereo not drawn) [^64Cu-PSMA-ALB-06, metal not drawn]
logD [1]: -3.1 ± 0.1

logD [1]: -2.8 ± 0.09
SMILES: O=C(O)CC[C@H](NC(=O)N[C@@H](CCCCNC(=O)[C@H](Cc1ccc2ccccc2c1)NC(=O)[C@H]1CC[C@H](CNC(=O)[C@@H](CCCCNC(=O)CN2CCN(CC(=O)O)CCN(CC(=O)O)CCN(CC(=O)O)CC2)NC(=O)CCCc2ccc(I)cc2)CC1)C(=O)O)C(=O)O [PSMA-ALB-02]

SMILES: Cc1ccc(CCCC(=O)NC(CC(=O)NC(CC(=O)NC(CC(=O)NC(CCCCNC(=O)CN2CCN(CC(=O)O)CCN(CC(=O)O)CCN(CC(=O)O)CC2)C(=O)NCC2CCC(C(=O)NC(Cc3ccc4ccccc4c3)C(=O)NCCCCC(NC(=O)NC(CCC(=O)O)C(=O)O)C(=O)O)CC2)C(=O)O)C(=O)O)C(=O)O)cc1 (stereo not drawn) [^177Lu-PSMA-ALB-08, metal not drawn]
internalized fraction / internalization rate versus reference [2]: still comparable to ^177Lu-PSMA-617
Blood ([3]; 4 h p.i.): 0.41 ± 0.18 % IA/g
Bone ([3]; 4 h p.i.): 0.16 ± 0.03 % IA/g
Heart ([3]; 4 h p.i.): 0.19 ± 0.07 % IA/g
Intestines ([3]; 4 h p.i.): 0.20 ± 0.09 % IA/g
Kidneys ([3]; 4 h p.i.): 27.2 ± 5.93 % IA/g
Liver ([3]; 4 h p.i.): 0.27 ± 0.10 % IA/g
Lung ([3]; 4 h p.i.): 0.48 ± 0.21 % IA/g
Muscle ([3]; 4 h p.i.): 0.06 ± 0.03 % IA/g
PC-3 PIP Tumor ([3]; 4 h p.i.): 46.9 ± 16.7 % IA/g
PC-3 flu Tumor ([3]; 4 h p.i.): 0.25 ± 0.19 % IA/g
Salivary glands ([3]; 4 h p.i.): 0.19 ± 0.06 % IA/g
Spleen ([3]; 4 h p.i.): 0.53 ± 0.10 % IA/g
Stomach ([3]; 4 h p.i.): 0.40 ± 0.25 % IA/g
Tumor-to-blood ([3]; 4 h p.i.): 116 ± 9.46
Tumor-to-kidney ([3]; 4 h p.i.): 1.70 ± 0.22
Tumor-to-liver ([3]; 4 h p.i.): 177 ± 2.72
Blood ([3]; 24 h p.i.): 0.08 ± 0.01 % IA/g
Bone ([3]; 24 h p.i.): 0.07 ± 0.02 % IA/g
Heart ([3]; 24 h p.i.): 0.04 ± 0.01 % IA/g
Intestines ([3]; 24 h p.i.): 0.03 ± 0.01 % IA/g
Kidneys ([3]; 24 h p.i.): 13.9 ± 2.32 % IA/g
Liver ([3]; 24 h p.i.): 0.11 ± 0.02 % IA/g
Lung ([3]; 24 h p.i.): 0.09 ± 0.02 % IA/g
Muscle ([3]; 24 h p.i.): 0.02 ± 0.01 % IA/g
PC-3 PIP Tumor ([3]; 24 h p.i.): 33.0 ± 5.04 % IA/g
PC-3 flu Tumor ([3]; 24 h p.i.): 0.09 ± 0.05 % IA/g
Salivary glands ([3]; 24 h p.i.): 0.07 ± 0.05 % IA/g
Spleen ([3]; 24 h p.i.): 0.10 ± 0.03 % IA/g
Stomach ([3]; 24 h p.i.): 0.03 ± 0.01 % IA/g
Tumor-to-blood ([3]; 24 h p.i.): 421 ± 45.7
Tumor-to-kidney ([3]; 24 h p.i.): 2.39 ± 0.24
Tumor-to-liver ([3]; 24 h p.i.): 295 ± 40.1
Blood ([3]; 72 h p.i.): 0.06 ± 0.02 % IA/g
Bone ([3]; 72 h p.i.): 0.09 ± 0.05 % IA/g
Heart ([3]; 72 h p.i.): 0.03 ± 0.01 % IA/g
Intestines ([3]; 72 h p.i.): 0.02 ± 0.01 % IA/g
Kidneys ([3]; 72 h p.i.): 7.98 ± 0.62 % IA/g
Liver ([3]; 72 h p.i.): 0.12 ± 0.01 % IA/g
Lung ([3]; 72 h p.i.): 1.28 ± 2.02 % IA/g
Muscle ([3]; 72 h p.i.): 0.01 ± 0.01 % IA/g
PC-3 PIP Tumor ([3]; 72 h p.i.): 24.1 ± 5.37 % IA/g
PC-3 flu Tumor ([3]; 72 h p.i.): 0.09 ± 0.07 % IA/g
Salivary glands ([3]; 72 h p.i.): 0.03 ± 0.02 % IA/g
Spleen ([3]; 72 h p.i.): 0.11 ± 0.05 % IA/g
Stomach ([3]; 72 h p.i.): 0.02 ± 0.01 % IA/g
Tumor-to-blood ([3]; 72 h p.i.): 416 ± 89.5
Tumor-to-kidney ([3]; 72 h p.i.): 3.02 ± 0.68
Tumor-to-liver ([3]; 72 h p.i.): 207 ± 47.1

SMILES: O=C(O)CCC(NC(=O)NC(CCCCNC(=O)C(Cc1ccc2ccccc2c1)NC(=O)C1CCC(CNC(=O)C(CCCCNC(=O)CN2CCN(CC(=O)O)CCN(CC(=O)O)CCN(CC(=O)O)CC2)NC(=O)CC(NC(=O)CC(NC(=O)CC(NC(=O)CCCc2ccc(I)cc2)C(=O)O)C(=O)O)C(=O)O)CC1)C(=O)O)C(=O)O (stereo not drawn) [PSMA-ALB-07]
logD [1]: -3.9 ± 0.25

SMILES: O=C(O)CCC(NC(=O)NC(CCCCNC(=O)C(Cc1ccc2ccccc2c1)NC(=O)C1CCC(CNC(=O)C(CCCCNC(=O)CN2CCN(CC(=O)O)CCN(CC(=O)O)CCN(CC(=O)O)CC2)NC(=O)CC(NC(=O)CC(NC(=O)CCCc2ccc(I)cc2)C(=O)O)C(=O)O)CC1)C(=O)O)C(=O)O (stereo not drawn) [PSMA-ALB-05]
logD [1]: -3.5 ± 0.08

logD [1]: -4.4 ± 0.15
SMILES: O=C(O)CC[C@H](NC(=O)N[C@@H](CCCCNC(=O)[C@H](Cc1ccc2ccccc2c1)NC(=O)[C@H]1CC[C@H](CNC(=O)CN2CCN(CC(=O)O)CCN(CC(=O)O)CCN(CC(=O)O)CC2)CC1)C(=O)O)C(=O)O [PSMA-617, reference compound]

SMILES: Cc1ccc(CCCC(=O)NCCCCC(NC(=O)CN2CCN(CC(=O)O)CCN(CC(=O)O)CCN(CC(=O)O)CC2)C(=O)NCC2CCC(C(=O)NC(Cc3ccc4ccccc4c3)C(=O)NCCCCC(NC(=O)NC(CCC(=O)O)C(=O)O)C(=O)O)CC2)cc1 (stereo not drawn) [^177Lu-PSMA-ALB-06, metal not drawn]
first mouse of group euthanized (PC-3 PIP tumor; 2 MBq/mouse (Groups B, D)): 28 days
median survival (PC-3 PIP tumor; 2 MBq/mouse (Groups B, D)): 36 days
TGDI2 (PC-3 PIP tumor; [4]): 1.8 ± 0.5
TGDI5 (PC-3 PIP tumor; [4]): 2.3 ± 0.6
tumor growth (PC-3 PIP tumor; 5 MBq/mouse (Group E)): the tumor growth was effectively inhibited
mice in which tumors disappeared entirely, no regrowth until Day 84 (PC-3 PIP tumor; 5 MBq/mouse (Group E), n=6): four
mice still alive at the end of the study at Day 84 (PC-3 PIP tumor; 5 MBq/mouse (Group E), n=6): four
first mouse of group euthanized (PC-3 PIP tumor; 5 MBq/mouse (Groups C, E)): 58 days
internalized fraction / internalization rate versus reference [2]: still comparable to ^177Lu-PSMA-617
Blood ([3]; 4 h p.i.): 16.2 ± 1.40 % IA/g
Bone ([3]; 4 h p.i.): 2.23 ± 0.08 % IA/g
Intestines ([3]; 4 h p.i.): 2.64 ± 0.27 % IA/g
Lung ([3]; 4 h p.i.): 9.40 ± 1.55 % IA/g
Muscle ([3]; 4 h p.i.): 1.60 ± 0.38 % IA/g
PC-3 PIP Tumor ([3]; 4 h p.i.): 76.08 ± 7.67 % IA/g
Tumor-to-blood ([3]; 4 h p.i.): 4.72 ± 0.51
Tumor-to-kidney ([3]; 4 h p.i.): 4.02 ± 0.25
Tumor-to-liver ([3]; 4 h p.i.): 24.29 ± 8.27
Blood ([3]; 24 h p.i.): 1.49 ± 0.50 % IA/g
Bone ([3]; 24 h p.i.): 0.41 ± 0.15 % IA/g
Heart ([3]; 24 h p.i.): 0.68 ± 0.18 % IA/g
Intestines ([3]; 24 h p.i.): 0.30 ± 0.06 % IA/g
Lung ([3]; 24 h p.i.): 2.48 ± 2.68 % IA/g
Muscle ([3]; 24 h p.i.): 0.21 ± 0.04 % IA/g
PC-3 PIP Tumor ([3]; 24 h p.i.): 108 ± 11.6 % IA/g
PC-3 flu Tumor ([3]; 24 h p.i.): 0.79 ± 0.23 % IA/g
Spleen ([3]; 24 h p.i.): 0.76 ± 0.18 % IA/g
Stomach ([3]; 24 h p.i.): 0.28 ± 0.07 % IA/g
Tumor-to-blood ([3]; 24 h p.i.): 77.6 ± 21.8
Tumor-to-kidney ([3]; 24 h p.i.): 10.4 ± 1.16
Tumor-to-liver ([3]; 24 h p.i.): 222 ± 49.5
Blood ([3]; 72 h p.i.): 0.62 ± 0.06 % IA/g
Bone ([3]; 72 h p.i.): 0.18 ± 0.01 % IA/g
Heart ([3]; 72 h p.i.): 0.26 ± 0.02 % IA/g
Intestines ([3]; 72 h p.i.): 0.15 ± 0.00 % IA/g
Kidneys ([3]; 72 h p.i.): 5.58 ± 0.62 % IA/g
Liver ([3]; 72 h p.i.): 0.28 ± 0.02 % IA/g
Lung ([3]; 72 h p.i.): 0.67 ± 0.05 % IA/g
PC-3 PIP Tumor ([3]; 72 h p.i.): 77.9 ± 7.52 % IA/g
PC-3 flu Tumor ([3]; 72 h p.i.): 0.43 ± 0.03 % IA/g
Salivary glands ([3]; 72 h p.i.): 0.24 ± 0.03 % IA/g
Stomach ([3]; 72 h p.i.): 0.13 ± 0.02 % IA/g
Tumor-to-blood ([3]; 72 h p.i.): 127 ± 24.9
Tumor-to-kidney ([3]; 72 h p.i.): 14.1 ± 2.02
Tumor-to-liver ([3]; 72 h p.i.): 277 ± 19.3
